Measurements as given in US11267802B2 (BEBETTER MED INC., priority 2015, dated 2022).

Assays:
[1] = molecular target: T1, EGFR T790M/L858R (Homo sapiens, UniProt P00533, L858R/T790M); experiment: Mutant EGFR T790M/L858R activity inhibition assay (Caliper mobility shift); format: biochemical; conditions: read-out: enzyme activity inhibition (IC50) EGFR T790M/L858R
T1 construct: purchased Invitrogen PR8911A
Description: The assay procedure is as follows. […] 5 μl of the compound dissolved in 10% DMSO at a concentration of 5-fold of the final reaction concentration was added to a 384 well plate. 5 μl of 10% DMSO was used in a no-compound control well, while 5 μl of a kinase buffer was used in a no-enzyme activity control well. […] The conversion rate was read on Caliper EZ Reader II (Caliper Life Sciences). The conversion rate was then converted to inhibitory rate.
As used herein, “max” refers to the conversion rate of the DMSO no-compound control well, and “min” refers to the conversion rate of the no-enzyme activity control well. A curve was obtained by plotting the inhibitory rate as a function of the compound concentration. The XLFit excel add-in version 4.3.1 software was used to fit the curve and calculate the IC50. Inhibitory rate %=(max−conversion rate)/(max−min)×100.

[2] = system: H1975; experiment: Inhibition assay on tumor cell proliferation (CellTiter-Glo), H1975; format: cell-based, Human; conditions: H1975 (L858R and T790M EGFR double mutation), 72 hours, 10% bovine serum
[3] = system: LOVO; experiment: Inhibition assay on tumor cell proliferation (CellTiter-Glo), LOVO; format: cell-based, Human; conditions: LOVO (wild-type EGFR), 72 hours, 10% bovine serum
Description: (§1) By using a CellTiter-Glo luminescence cell viability test kit (Promega, # G7572), the content of adenosine triphosphate (ATP) was determined to assess the cell viability.
(§2) Human colon cancer cell line LOVO and human non-small-cell lung cancer H358 express wild-type EGFR. Human non-small-cell lung cancer cell line HCC827 carries deletion mutation in exon 19 (ex19del). Those cell lines are purchased from Shanghai Fudan IBS Cell Resource Center and American Tissue Culture Collection (ATCC).
(§3) The assay procedure is as follows. The cells in a cell culture plate were digested with a pancreatic enzyme, re-suspended in a DPBS culture medium, and had the cell density counted by Scepter automated cytometer (Millipore # PHCC00000). The cells were diluted to a solution of 44,000 cells per ml. The cell solution with adjusted density was added to the cell assay plate at 90 microliters per well. The plate was placed in an incubator with 5% CO2 at 37° C. for 24 hours of incubation, and then added with different concentrations of subject compounds. The cells were incubated for 72 hours with the compounds in presence of 10% bovine serum. The content of ATP was determined by a CellTiter-Glo® Luminescent Cell Viability Assay kit (see the manufacturer's instruction for details) to evaluate cell-growth inhibition.
(§4) Briefly, 30 μl of CellTiter-Glo® reagent was added to each well, and then shaken for 10 minutes to induce cell lysis. The fluorescent signal was detected and recorded by Fluoroskan Ascent FL (Thermo). The max signal value was obtained from the cells treated by dimethyl sulfoxide for 72 hours. The min signal value was obtained from the medium alone (the number of the cells was 0). Inhibitory rate %=(max signal value−compound signal value)/(max signal value−min signal value)×100. The data was processed by GraphPad Prism V5.0 software (GraphPad Software, San Diego, Calif.). Sigmoidal dose-response curve fitting was performed to calculate the IC50 value.

[4] = system: H358; experiment: Inhibition assay on tumor cell proliferation (CellTiter-Glo), H358; format: cell-based, Human; conditions: H358 (wild-type EGFR), 72 hours, 10% bovine serum
Description: as §1, §2, §3, §4

[5] = Pharmacokinetics in rats after oral administration; format: in vivo, SD rats; conditions: for AUC(0-inf) / Cmax / Tmax / half-life / AUC(0-t): male, SD, rat, 20 mg/kg, plasma; for AUC(0-t): read-out: AUC0-24
Description: Male SD rats weighing 250-300 g, or male beagles weighing 9-10 kg, were fasted overnight before the experiment. The object compounds were dissolved in 30% sulfobutylated beta-cyclodextrin (SBE-β-CD), and orally administrated to the rats at a dose of 20 mg/kg or to the beagles at a dose of 5 mg/kg. Blood samples were taken at 15 minutes, 30 minutes, 1 hour, 2 hours, 3 hours, 4 hours, 6 hours, 8 hours and 24 hours after administration. 0.3 ml of blood was collected at every time point, placed in a centrifuge tube containing K2-EDTA (ethylenediamine tetraacetic acid dipotassium) and centrifuged (2,000 g, 10 minutes, 4° C.) to collect plasma, which was then stored in an ultra cold storage freezer at −80° C. 50 μL of plasma sample was mixed with 5 μL of internal standard (IS), and then extracted with ethyl acetate. After vacuum drying, the residue was re-dissolved in acetonitrile. The sample was filtered and injected into LC-MS/MS for analysis.

T1 sequence (P00533 25-1210 T790M/L858R): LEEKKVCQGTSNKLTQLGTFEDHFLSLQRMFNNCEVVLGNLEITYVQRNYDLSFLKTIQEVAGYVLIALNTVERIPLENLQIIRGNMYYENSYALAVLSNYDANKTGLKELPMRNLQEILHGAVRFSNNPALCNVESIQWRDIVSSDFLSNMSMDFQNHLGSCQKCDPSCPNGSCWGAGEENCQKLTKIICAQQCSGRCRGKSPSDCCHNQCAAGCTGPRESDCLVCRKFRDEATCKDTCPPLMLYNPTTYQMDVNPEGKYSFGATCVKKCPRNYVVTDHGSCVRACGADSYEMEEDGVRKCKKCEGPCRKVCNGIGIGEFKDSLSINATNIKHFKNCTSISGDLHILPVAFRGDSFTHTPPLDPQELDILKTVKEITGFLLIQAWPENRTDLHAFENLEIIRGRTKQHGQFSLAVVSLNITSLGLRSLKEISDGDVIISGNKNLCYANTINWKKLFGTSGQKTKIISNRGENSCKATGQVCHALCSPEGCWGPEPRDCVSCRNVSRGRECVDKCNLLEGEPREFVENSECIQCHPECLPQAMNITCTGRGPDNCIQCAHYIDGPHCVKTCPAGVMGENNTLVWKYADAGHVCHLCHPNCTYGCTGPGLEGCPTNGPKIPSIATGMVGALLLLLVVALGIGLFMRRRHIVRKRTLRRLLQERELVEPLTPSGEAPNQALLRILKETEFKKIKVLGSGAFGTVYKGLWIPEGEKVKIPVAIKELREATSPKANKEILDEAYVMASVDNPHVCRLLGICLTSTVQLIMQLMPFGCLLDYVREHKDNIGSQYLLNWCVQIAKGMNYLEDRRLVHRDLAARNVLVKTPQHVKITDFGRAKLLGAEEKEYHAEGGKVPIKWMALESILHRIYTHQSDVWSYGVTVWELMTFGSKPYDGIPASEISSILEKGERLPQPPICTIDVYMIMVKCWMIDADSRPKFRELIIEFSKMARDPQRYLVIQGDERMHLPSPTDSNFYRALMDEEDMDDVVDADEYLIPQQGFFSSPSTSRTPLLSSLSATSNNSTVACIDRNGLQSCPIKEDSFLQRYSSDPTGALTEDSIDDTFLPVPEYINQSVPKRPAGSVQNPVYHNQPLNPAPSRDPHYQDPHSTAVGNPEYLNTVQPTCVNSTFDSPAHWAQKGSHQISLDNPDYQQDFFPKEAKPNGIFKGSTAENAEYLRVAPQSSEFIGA

Compound	IC50 [1]	IC50 ([2]; Homo sapiens, NCI-H1975)	IC50 ([3]; Homo sapiens)	IC50 ([4]; Homo sapiens, NCI-H358)	melting point	IC50 [2]	IC50 [3]	IC50 [4]	absorption / blood exposure after oral administration (in words) [5]	AUC(0-inf) [5]	Cmax [5]	Tmax [5]	half-life [5]	AUC(0-t) [5]
C=CC(=O)Nc1cc(Nc2nccc(-n3ccc4cc(O)ccc43)n2)c(OC)cc1N(C)CCN(C)C [Compound 36, N-(2-((2-(dimethylamino)ethyl)(methyl)amino)-5-((4-(5-hydroxy-1H-indol-1-yl)pyrimidin-2-yl)amino)-4-methoxyphenyl)acrylamide]	< 1 nM	< 10 nM	> 1000 nM	100 to 1000 nM	218 to 219 °C									
C=CC(=O)Nc1cc(Nc2nccc(-n3c(=O)n(C)c4cc(OC)ccc43)n2)c(OC)cc1N(C)CCN(C)C [Compound 53, N-(2-((2-(dimethylamino)ethyl) (methyl)amino)-4-methoxy-5-((4-(5-methoxy-3-methyl-2-oxo-2,3-dihydro-1H-benzo[d]imidazol-1-yl)pyrimidin-2-yl)amino)phenyl)acryl amide]	< 1 nM					10 to 50 nM	> 1000 nM	50 to 100 nM						
C=CC(=O)Nc1cc(Nc2nccc(-n3ccc4nc(Cl)ccc43)n2)c(OC)cc1N(C)CCN(C)C [Compound 124, N-(5-((4-(5-chloro-1H-pyrrolo[3,2-b]pyridin-1-yl)pyrimidin-2-yl)amino)-2-((2-(dimethylamino)ethyl)(methyl)amino)-4-methoxyphenyl)acrylamide]	< 1 nM	< 10 nM		100 to 1000 nM	127 to 129 °C				well absorbed, with high blood exposure	1790 ng·h/mL	327 ng/mL	1.7 h	6.1 h	1700 ng·h/mL
C=CC(=O)Nc1cc(Nc2ncc(C)c(-n3ccc4ccccc43)n2)c(OC)cc1N(C)CCN(C)C [Compound 8, N-(5-((4-(1H-indol-1-yl)-5-methylpyrimidin-2-yl)amino)-2-((2-(dimethylamino)ethyl)(methyl)amino)-4-methoxyphenyl)acrylamide]	< 1 nM	< 10 nM	> 1000 nM	100 to 1000 nM										
C=CC(=O)Nc1cc(Nc2nccc(-n3c(=O)n(C)c4ccccc43)n2)ccc1N(C)CCN(C)C [Compound 125, N-(2-((2-(dimethylamino)ethyl)(methyl)amino)-5-((4-(3-methyl-2-oxo-2,3-dihydro-1H-benzo[d]imidazol-1-yl)pyrimidin-2-yl)amino)phenyl)acrylamide]	< 1 nM	< 10 nM		100 to 1000 nM	190 to 193 °C									
C=CC(=O)Nc1cc(Nc2nccc(-n3c(=O)n(CC=C(C)C)c4ccccc43)n2)c(OC)cc1N(C)CCN(C)C [Compound 62, N-(2-((2-(dimethylamino)ethyl)(methyl)amino)-4-methoxy-5-(4-(3-(3-methylbut-2-enyl)-2-oxo-2,3-dihydro-1H-benzo[d]imidazol-1-yl)pyrimidin-2-ylamino)phenyl)acrylamide]	< 1 nM	< 10 nM		100 to 1000 nM	187 to 188 °C				well absorbed, with high blood exposure	920 ng·h/mL	84 ng/mL	3.7 h	6.8 h	834 ng·h/mL
C=CC(=O)Nc1cc(Nc2nccc(-n3ccc4ccccc43)n2)c(OC)cc1N1CC(N(C)C)C1 [Compound 77, N-(5-(4-(1H-indol-1-yl)pyrimidin-2-ylamino)-2-(3-(dimethylamino)azetidin-1-yl)-4-methoxyphenyl)acrylamide]	1 to 10 nM	10 to 50 nM	> 1000 nM		81 to 83 °C									
C=CC(=O)Nc1cc(Nc2nccc(-n3c(=O)n(C(C)C)c4cc(O)ccc43)n2)c(OC)cc1N(C)CCN(C)C [Compound 139, N-(2-((2-(dimethylamino)ethyl)(methyl)amino)-5-((4-(5-hydroxy-3-isopropyl-2-oxo-2,3-dihydro-1H-benzo[d]imidazol-1-yl)pyrimidin-2-yl)amino)-4-methoxyphenyl)acrylamide]	< 1 nM	< 10 nM		100 to 1000 nM	115 to 117 °C									
COc1cc(N(C)CCN(C)C)c(NC(=O)/C=C/CN2CCCCC2)cc1Nc1nccc(-n2ccc3ccccc32)n1 [Compound 70, (E)-N-(5-(4-(1H-indol-1-yl)pyrimidin-2-ylamino)-2-((2-(dimethylamino)ethyl)(methyl)amino)-4-methoxyphenyl)-4-(piperidin-1-yl)but-2-enamide]	1 to 10 nM	100 to 1000 nM	100 to 1000 nM	100 to 1000 nM										
C=CC(=O)Nc1cc(Nc2nccc(-n3c(=O)n(CC4CC4)c4ccccc43)n2)c(OC)cc1N(C)CCN(C)C [Compound 63, N-(5-((4-(3-(cyclopropylmethyl)-2-oxo-2,3-dihydro-1H-benzo[d]imidazol-1-yl)pyrimidin-2-yl)amino)-2-((2-(dimethylamino)ethyl)(methyl)amino)-4-methoxyphenyl)acrylamide]	< 1 nM	< 10 nM		> 1000 nM	68 to 72 °C									
C=CC(=O)Nc1cc(Nc2nccc(-n3ccc4cc([N+](=O)[O-])ccc43)n2)c(OC)cc1N(C)CCN(C)C [Compound 34, N-{2-[(2-Dimethylamino-ethyl)-methyl-amino]-4-methoxy-5-[4-(5-nitro-indol-1-yl)-pyrimidin-2-ylamino]-phenyl}-acryl amide]	1 to 10 nM	< 10 nM	> 1000 nM	100 to 1000 nM										
C=CC(=O)Nc1cc(Nc2nccc(-n3c(=O)n(C(C)C)c4cc(OC)ccc43)n2)c(OC)cc1N(C)CCN(C)C [Compound 138, N-(2-((2-(dimethylamino)ethyl)(methyl)amino)-5-((4-(3-isopropyl-5-methoxy-2-oxo-2,3-dihydro-1H-benzo[d]imidazol-1-yl)pyrimidin-2-yl)amino)-4-methoxyphenyl)acrylamide]	1 to 10 nM	< 10 nM		100 to 1000 nM	95 to 98 °C									
C=CC(=O)Nc1cc(Nc2nccc(-n3c(=O)n(C4CC4)c4cc(OC)ccc43)n2)c(OC)cc1N(C)CCN(C)C [Compound 102, N-(5-((4-(3-cyclopropyl-5-methoxy-2-oxo-2,3-dihydro-1H-benzo[d]imidazol-1-yl)pyrimidin-2-yl)amino)-2-((2-(dimethylamino)ethyl)(methyl)amino)-4-methoxyphenyl)acrylamide]	< 1 nM	< 10 nM		100 to 1000 nM	144 to 146 °C									
C=CC(=O)Nc1cc(Nc2nccc(-n3c(=O)n(C(C)C)c4ccccc43)n2)ccc1N(C)CCN(C)C [Compound 128, N-(2-((2-(dimethylamino)ethyl)(methyl)amino)-5-((4-(3-isopropyl-2-oxo-2,3-dihydro-1H-benzo[d]imidazol-1-yl)pyrimidin-2-yl)amino)phenyl)acrylamide]	< 1 nM	< 10 nM		100 to 1000 nM	85 to 90 °C									
